Measurements reported in ChEMBL document CHEMBL5303573, “Mapping human microbiome drug metabolism by gut bacteria and their genes” (Nature, 2019).

What was measured:
[1] = The drug is tested on Subdoligranulum variabile strain: DSM15176 for biotransformation. The drug concentrations were measured before and after a 12-h incubation by liquid-chromatography-coupled mass spectrometry (LC–MS); conditions: 2 µM
[2] = The drug is tested on Edwardsiella tarda strain: ATCC23685 for biotransformation. The drug concentrations were measured before and after a 12-h incubation by liquid-chromatography-coupled mass spectrometry (LC–MS); conditions: 2 µM
[3] = The drug is tested on Bifidobacterium ruminantium strain: fecal isolate for biotransformation. The drug concentrations were measured before and after a 12-h incubation by liquid-chromatography-coupled mass spectrometry (LC–MS); conditions: 2 µM
[4] = The drug is tested on Bacteroides xylanisolvens strain: DSM18836 for biotransformation. The drug concentrations were measured before and after a 12-h incubation by liquid-chromatography-coupled mass spectrometry (LC–MS); conditions: 2 µM
[5] = The drug is tested on Clostridium sp. strain: fecal isolate for biotransformation. The drug concentrations were measured before and after a 12-h incubation by liquid-chromatography-coupled mass spectrometry (LC–MS); conditions: 2 µM
[6] = bacteroides thetaiotaomicron, 12 h, 2 µM
Description: The drug is tested on Bacteroides thetaiotaomicron strain: 7330 for biotransformation. The drug concentrations were measured before and after a 12-h incubation by liquid-chromatography-coupled mass spectrometry (LC–MS)

[7] = The drug is tested on Bacteroides uniformis strain: ATCC8492 for biotransformation. The drug concentrations were measured before and after a 12-h incubation by liquid-chromatography-coupled mass spectrometry (LC–MS); conditions: 2 µM
[8] = The drug is tested on Enterococcus faecalis strain: V583 for biotransformation. The drug concentrations were measured before and after a 12-h incubation by liquid-chromatography-coupled mass spectrometry (LC–MS); conditions: 2 µM
[9] = The drug is tested on Bacteroides ovatus strain: ATCC8483 for biotransformation. The drug concentrations were measured before and after a 12-h incubation by liquid-chromatography-coupled mass spectrometry (LC–MS); conditions: 2 µM
[10] = The drug is tested on Ruminococcus gnavus strain: ATCC29149 for biotransformation. The drug concentrations were measured before and after a 12-h incubation by liquid-chromatography-coupled mass spectrometry (LC–MS); conditions: mediterraneibacter gnavus, 2 µM
[11] = bacteroides thetaiotaomicron, 12 h, 2 µM; remark: listed apart in the source
Description: The drug is tested on Bacteroides thetaiotaomicron strain: VPI-5482 for biotransformation. The drug concentrations were measured before and after a 12-h incubation by liquid-chromatography-coupled mass spectrometry (LC–MS)

[12] = The drug is tested on Bacteroides pectinophilus strain: ATCC43243 for biotransformation. The drug concentrations were measured before and after a 12-h incubation by liquid-chromatography-coupled mass spectrometry (LC–MS); conditions: 2 µM
[13] = The drug is tested on Ruminococcus lactaris strain: ATCC29176 for biotransformation. The drug concentrations were measured before and after a 12-h incubation by liquid-chromatography-coupled mass spectrometry (LC–MS); conditions: 2 µM
[14] = The drug is tested on Providencia stuartii strain: ATCC25827 for biotransformation. The drug concentrations were measured before and after a 12-h incubation by liquid-chromatography-coupled mass spectrometry (LC–MS); conditions: 2 µM
[15] = The drug is tested on Bacteroides fragilis strain: HMW610 for biotransformation. The drug concentrations were measured before and after a 12-h incubation by liquid-chromatography-coupled mass spectrometry (LC–MS); conditions: 2 µM
[16] = The drug is tested on Bacteroides fragilis strain: HMW615 for biotransformation. The drug concentrations were measured before and after a 12-h incubation by liquid-chromatography-coupled mass spectrometry (LC–MS); conditions: 2 µM
[17] = bacteroides fragilis, 12 h, 2 µM
Description: The drug is tested on Bacteroides fragilis strain: NCTC 9343 for biotransformation. The drug concentrations were measured before and after a 12-h incubation by liquid-chromatography-coupled mass spectrometry (LC–MS)

[18] = The drug is tested on Providencia rettgeri strain: DSM1131 for biotransformation. The drug concentrations were measured before and after a 12-h incubation by liquid-chromatography-coupled mass spectrometry (LC–MS); format: ADME; design: dose 2 uM, timepoint 0 vs 12 hours; conditions: 2 µM
[19] = roseburia intestinalis, 12 h, 2 µM
Description: The drug is tested on Roseburia intestinalis strain: L1-82 for biotransformation. The drug concentrations were measured before and after a 12-h incubation by liquid-chromatography-coupled mass spectrometry (LC–MS)

[20] = The drug is tested on Clostridium scindens strain: ATCC35704 for biotransformation. The drug concentrations were measured before and after a 12-h incubation by liquid-chromatography-coupled mass spectrometry (LC–MS); conditions: 2 µM

SMILES: COC(=O)C(c1ccccc1)C1CCCCN1 (stereo unspecified) [METHYLPHENIDATE]
- Bacterial Biotransformation [1]: Compound NOT metabolized
- Bacterial Biotransformation [2]: Compound NOT metabolized
- Bacterial Biotransformation [3]: Compound metabolized
- Bacterial Biotransformation [4]: Compound NOT metabolized
- Bacterial Biotransformation [5]: Compound metabolized
- Bacterial Biotransformation [6]: Compound NOT metabolized
- Bacterial Biotransformation [7]: Compound NOT metabolized
- Bacterial Biotransformation [8]: Compound NOT metabolized
- Bacterial Biotransformation [9]: Compound NOT metabolized
- Bacterial Biotransformation [10]: Compound NOT metabolized
- Bacterial Biotransformation [11]: Compound NOT metabolized
- Bacterial Biotransformation [12]: Compound NOT metabolized
- Bacterial Biotransformation [13]: Compound NOT metabolized
- Bacterial Biotransformation [14]: Compound NOT metabolized
- Bacterial Biotransformation [15]: Compound NOT metabolized
- Bacterial Biotransformation [16]: Compound NOT metabolized

SMILES: COc1c2occc2cc2ccc(=O)oc12 [METHOXSALEN]
- Bacterial Biotransformation [17]: Compound metabolized
- Bacterial Biotransformation [1]: Compound NOT metabolized
- Bacterial Biotransformation [2]: Compound NOT metabolized
- Bacterial Biotransformation [3]: Compound NOT metabolized
- Bacterial Biotransformation [4]: Compound metabolized
- Bacterial Biotransformation [5]: Compound metabolized
- Bacterial Biotransformation [7]: Compound metabolized
- Bacterial Biotransformation [8]: Compound NOT metabolized
- Bacterial Biotransformation [10]: Compound metabolized
- Bacterial Biotransformation [11]: Compound NOT metabolized
- Bacterial Biotransformation [18]: Compound NOT metabolized
- Bacterial Biotransformation [12]: Compound NOT metabolized
- Bacterial Biotransformation [19]: Compound metabolized
- Bacterial Biotransformation [15]: Compound metabolized
- Bacterial Biotransformation [20]: Compound NOT metabolized
- Bacterial Biotransformation [16]: Compound metabolized

SMILES: CC12CC3CC(C)(C1)CC(N)(C3)C2 [MEMANTINE]
- Bacterial Biotransformation [17]: Compound NOT metabolized
- Bacterial Biotransformation [1]: Compound NOT metabolized
- Bacterial Biotransformation [2]: Compound NOT metabolized
- Bacterial Biotransformation [3]: Compound metabolized
- Bacterial Biotransformation [5]: Compound NOT metabolized
- Bacterial Biotransformation [6]: Compound NOT metabolized
- Bacterial Biotransformation [7]: Compound NOT metabolized
- Bacterial Biotransformation [8]: Compound NOT metabolized
- Bacterial Biotransformation [9]: Compound NOT metabolized
- Bacterial Biotransformation [10]: Compound NOT metabolized
- Bacterial Biotransformation [11]: Compound NOT metabolized
- Bacterial Biotransformation [12]: Compound NOT metabolized
- Bacterial Biotransformation [14]: Compound NOT metabolized
- Bacterial Biotransformation [15]: Compound NOT metabolized
- Bacterial Biotransformation [20]: Compound NOT metabolized
- Bacterial Biotransformation [16]: Compound NOT metabolized

SMILES: Cc1ccc(/C(=C\CN2CCCC2)c2ccccn2)cc1 [TRIPROLIDINE]
- Bacterial Biotransformation [17]: Compound NOT metabolized
- Bacterial Biotransformation [1]: Compound NOT metabolized
- Bacterial Biotransformation [2]: Compound NOT metabolized
- Bacterial Biotransformation [4]: Compound NOT metabolized
- Bacterial Biotransformation [5]: Compound NOT metabolized
- Bacterial Biotransformation [6]: Compound NOT metabolized
- Bacterial Biotransformation [7]: Compound NOT metabolized
- Bacterial Biotransformation [8]: Compound NOT metabolized
- Bacterial Biotransformation [9]: Compound NOT metabolized
- Bacterial Biotransformation [10]: Compound NOT metabolized
- Bacterial Biotransformation [11]: Compound NOT metabolized
- Bacterial Biotransformation [18]: Compound NOT metabolized
- Bacterial Biotransformation [12]: Compound NOT metabolized
- Bacterial Biotransformation [13]: Compound NOT metabolized
- Bacterial Biotransformation [19]: Compound NOT metabolized
- Bacterial Biotransformation [14]: Compound NOT metabolized
- Bacterial Biotransformation [15]: Compound NOT metabolized
- Bacterial Biotransformation [20]: Compound NOT metabolized
- Bacterial Biotransformation [16]: Compound NOT metabolized

SMILES: CCCCC(=O)O[C@]1(C(=O)CO)[C@@H](C)C[C@H]2[C@@H]3CCC4=CC(=O)C=C[C@]4(C)[C@@]3(F)[C@@H](O)C[C@@]21C [BETAMETHASONE VALERATE]
- Bacterial Biotransformation [17]: Compound metabolized
- Bacterial Biotransformation [1]: Compound metabolized
- Bacterial Biotransformation [2]: Compound NOT metabolized
- Bacterial Biotransformation [3]: Compound NOT metabolized
- Bacterial Biotransformation [4]: Compound metabolized
- Bacterial Biotransformation [5]: Compound metabolized
- Bacterial Biotransformation [6]: Compound metabolized
- Bacterial Biotransformation [7]: Compound metabolized
- Bacterial Biotransformation [8]: Compound NOT metabolized
- Bacterial Biotransformation [9]: Compound NOT metabolized
- Bacterial Biotransformation [11]: Compound NOT metabolized
- Bacterial Biotransformation [18]: Compound NOT metabolized
- Bacterial Biotransformation [12]: Compound NOT metabolized
- Bacterial Biotransformation [13]: Compound NOT metabolized
- Bacterial Biotransformation [19]: Compound NOT metabolized
- Bacterial Biotransformation [14]: Compound NOT metabolized
- Bacterial Biotransformation [15]: Compound metabolized
- Bacterial Biotransformation [20]: Compound metabolized
- Bacterial Biotransformation [16]: Compound metabolized

SMILES: O=C(NC(Cc1cc(=O)[nH]c2ccccc12)C(=O)O)c1ccc(Cl)cc1 (stereo unspecified) [REBAMIPIDE]
- Bacterial Biotransformation [17]: Compound NOT metabolized
- Bacterial Biotransformation [1]: Compound NOT metabolized
- Bacterial Biotransformation [2]: Compound NOT metabolized
- Bacterial Biotransformation [3]: Compound NOT metabolized
- Bacterial Biotransformation [4]: Compound metabolized
- Bacterial Biotransformation [5]: Compound NOT metabolized
- Bacterial Biotransformation [6]: Compound metabolized
- Bacterial Biotransformation [7]: Compound metabolized
- Bacterial Biotransformation [8]: Compound NOT metabolized
- Bacterial Biotransformation [9]: Compound NOT metabolized
- Bacterial Biotransformation [10]: Compound NOT metabolized
- Bacterial Biotransformation [11]: Compound NOT metabolized
- Bacterial Biotransformation [18]: Compound NOT metabolized
- Bacterial Biotransformation [12]: Compound NOT metabolized
- Bacterial Biotransformation [13]: Compound NOT metabolized
- Bacterial Biotransformation [19]: Compound NOT metabolized
- Bacterial Biotransformation [14]: Compound NOT metabolized
- Bacterial Biotransformation [15]: Compound metabolized
- Bacterial Biotransformation [20]: Compound NOT metabolized
- Bacterial Biotransformation [16]: Compound metabolized
